Laboratory results published in US20260248881A1, “PHARMACEUTICAL COMPOSITION COMPRISING FOXM1 INHIBITOR AND IMMUNE CHECKPOINT INHIBITOR FOR PREVENTING OR TREATING CANCER” (National Cancer Center, priority 2022, published 2026).

Columns and labels:
[1] = system: FOXM1 and PD-L1; assay: FOXM1 and PD-L1 expression in MC38 cells (immunoblotting, confocal imaging); assay type: cell-based, mouse
Experimental: Human colorectal cancer cell lines (HCT116, HCT8, and SW480) and human primary coronary artery smooth muscle cells (SMCs) were purchased from the American Type Culture Collection (Manassas, VA, USA), and a MC38 mouse colorectal adenocarcinoma cell line was provided by Dr. Beom-Kyu Choi (National Cancer Center, Goyang, Republic of Korea). MC38 cells were cultured in Dulbecco's modified Eagle's medium (DMEM) supplemented with 10% FBS and 1% penicillin/streptomycin. SW480 and HCT8 cells were cultured in Roswell Park Memorial Institute (RPMI) medium supplemented with 10% FBS and 1% penicillin/streptomycin. […]
For immunoblotting analysis, protein concentrations were measured using a bicinchoninic acid kit (Cat. 23225; Thermo Fisher Scientific, Carlsbad, CA, USA). […] The appropriate secondary antibodies conjugated to horseradish peroxidase were bound to the washed membrane, and protein bands were detected using a chemiluminescence kit (Thermo Fisher Scientific, Carlsbad, CA, USA).
To confirm the dose-dependent downregulation of PD-L1 levels by TST, which is a FOXM1 inhibitor, live cell imaging was performed on PD-L1 expression in MC38 cells. […] Fluorescence images of nuclei (λex 359 nm, λem 457 nm) and PD-L1 (λex 590 nm, λem 618 nm) were obtained using a confocal scanning laser microscope (LSM780; Carl Zeiss, Oberkochen, Germany).

[2] = system: FOXM1 and PD-L1; assay: Immunoblotting of FOXM1 and PD-L1 in human colorectal cancer cell lines; assay type: cell-based; details: 5 μM TST; HCT8, HCT116, and SW480
Experimental: Human colorectal cancer cell lines (HCT116, HCT8, and SW480) and human primary coronary artery smooth muscle cells (SMCs) were purchased from the American Type Culture Collection (Manassas, VA, USA), and a MC38 mouse colorectal adenocarcinoma cell line was provided by Dr. Beom-Kyu Choi (National Cancer Center, Goyang, Republic of Korea). MC38 cells were cultured in Dulbecco's modified Eagle's medium (DMEM) supplemented with 10% FBS and 1% penicillin/streptomycin. SW480 and HCT8 cells were cultured in Roswell Park Memorial Institute (RPMI) medium supplemented with 10% FBS and 1% penicillin/streptomycin. HCT116 cells were maintained in McCoy's 5A medium supplemented with 10% FBS and 1% penicillin/streptomycin. Cells were maintained at 37° C. in a humidified incubator with 5% CO2.
For immunoblotting analysis, protein concentrations were measured using a bicinchoninic acid kit (Cat. 23225; Thermo Fisher Scientific, Carlsbad, CA, USA). Proteins were separated by SDS-PAGE electrophoresis. […] The appropriate secondary antibodies conjugated to horseradish peroxidase were bound to the washed membrane, and protein bands were detected using a chemiluminescence kit (Thermo Fisher Scientific, Carlsbad, CA, USA).

[3] = system: Lewis lung carcinoma LLC-1; assay: Syngeneic tumor model using murine lung cancer cells LLC-1
Experimental: Lewis lung carcinoma LLC-1, murine lung cancer cells (5×10^5), were implanted subcutaneously in 5-week-old C57BL/6N mice (n=6 per group) (OrientBio, Seoul, Korea) and left for 10 days to form tumors with a volume of approximately 150 mm^3. […] Tumor volumes and body weights of the mice were measured every other day. On day 9, all the mice were sacrificed, and tumor tissues were collected, fixed in formalin, embedded in paraffin, and sectioned for IHC.
CD3^+ T-cells were detected (ab16669, Cambridge, UK) by anti-CD3 antibody Abcam, according to manufacturer's manuals. The positive signal intensity of CD3^+ T-cells was analyzed by using computer image analysis with ImageJ software (LOCI, University of Wisconsin), and the intensity of CD3^+ signals was calculated as a relative ratio of total positive area/total surface area. Pathological images were obtained from an Aperio VERSA slide scanning system (Leica Biosystems Imaging, Vista, CA, USA). At 100× magnification, three independent and intact computerized microscopic fields of each tissue sample were captured by Aperio Imagescope software (Leica Biosystems Imaging, Vista, CA, USA) and were used for analysis of signal intensity of CD3^+ cells in while microscopic fields.
The in vivo synergy between TST and anti-4-1BB antibody-treated groups was determined by calculating a coefficient of drug interaction (CDI), with CDI values<1, <0.7, =1, and >1 indicating synergy, significant synergy, additivity, and antagonism, respectively.
Lewis lung carcinoma (LLC-1) mouse lung cancer cells (5×10^5) were injected subcutaneously into C57BL/6N mice (n=6 per group) and allowed to form tumors with a volume of 150 mm^3 for 10 days.

[4] = In vivo toxicity in xenograft mice (serum biochemical analysis, H&E, TUNEL of normal tissues)
Experimental: IHC staining was performed using anti-rabbit-HRP antibodies (K4003, EnVision+ HRP Labelled Polymer Anti-Rabbit, Dako, Agilent Technologies, Carpinteria, CA, USA) and 3,3′-diaminobenzidine (DAB) (K3468, DAB+ Chromogen, Dako, Agilent Technologies, Santa Clara, CA, USA) as substrates, and the sections were counterstained with hematoxylin (K8008, EnVision FLEX Hematoxylin, Dako, Agilent Technologies Singapore, Singapore). To analyze the in vivo toxicity of the tested drugs, four xenograft mice from each group were used for serum biochemical analysis (Table 2). On day 9, serum samples were collected from the mice in the control and TST-treated groups. In addition, the vital organs (liver, spleen, and kidney) were collected form mice, sectioned, and stained with H&E to monitor histopathological changes.

[5] = system: PD-L1; assay: PD-L1 expression on cell membrane of H1299 and PC9 cells (immunocytochemistry, Western blot); assay type: cell-based, human; details: for PD-L1 expression restoration on the cell membrane by FOXM1 overexpression, by: TST 5 μM 48 hours in the presence of IFNγ; for reduction in the PD-L1 levels (cell membrane): TST in the presence of IFNγ, vs DMSO control
Experimental: Cells were lysed in RIPA buffer supplemented with complete mini protease inhibitor cocktail (#04693124001; Roche, Basel, Switzerland) and kept on ice for 30 minutes. Equal amounts of protein were evenly loaded and analyzed by sodium dodecyl sulfate-polyacrylamide gel electrophoresis (SDS-PAGE), and transferred to polyvinylidene difluoride (PVDF) membranes (#IPVH 00010; Millipore, Billerica, MA, USA) at 100 V for 1 hour. Primary antibodies (Santa Cruz Biotechnology, Texas, USA) specific for FOXM1 (#sc-271746), cyclin E1 (#sc-481), α-tubulin (#sc-8035), and β-actin (#sc-47778); PD-L1 (#13684S), cyclin D1 (#2978S), cyclin B1 (#4138S), c-MYC (#5605S), and poly(ADP-ribose) polymerase (PARP, #9542S; Cell Signaling Technology, Beverly, MA, USA) were used to probe proteins of interest. A horseradish-peroxidase-conjugated secondary antibodies specific to the primary antibody was used to detect proteins using pico-enhanced chemiluminescence substrate (#34577; Thermo Fisher Scientific).
Cells were fixed in 4% paraformaldehyde (#30525-89-4; FUJIFILM Wako Chemical, Wako, Japan) for 15 minutes and blocked with 1% bovine serum albumin (BSA) in phosphate-buffered saline-0.01% Tween-20 (PBS-T) to reduce nonspecific antibody binding. Cells were then incubated overnight with an anti-PD-L1 antibody (#14598382; eBioscience, San Diego, CA, USA) diluted 1:200 and an anti-FOXM1 antibody (#sc-271746; Santa Cruz Biotechnology) diluted 1:50, followed by incubation with an Alexa Fluor 488-labeled secondary antibody (#A11029; Thermo Fisher Scientific) for 1 hour. Nuclei were stained with Hoechst 33342. After incubation, cells were washed with PBS and mounted on glass slides using Prolong Glass Antifade mounting medium (#P36982; Thermo Fisher Scientific). Confocal microscopy was performed using a Zeiss 730 Meta microscope (Carl Zeiss, Oberkochen, Germany) and analyzed using Axiovision software (Carl Zeiss).

Substance: thiostrepton [TST]
- level of PD-L1 in the plasma membrane ([1]; MC38, TST 0, 1, 5, and 10 μM, 48 hours): dose-dependently decreased
- FOXM1 and PD-L1 expression levels ([1]; MC38 mouse colorectal cancer cells): dose-dependently decreased
- FOXM1 and PD-L1 levels [2]: significantly decreased both FOXM1 and PD-L1 levels
- number of apoptotic tumor cells (TUNEL), vs control group ([3]; day 9): 2.46 fold
- increase in CD3+ T cells in tumors, vs control group ([3]; immunohistochemical staining): 1.32 fold
- tumor growth inhibition ([3]; treatment initiated at smaller tumor size (~80 mm^3), antibodies 0.2 mg/mouse): 63.1%
- inhibition of tumor growth ([3]; tumors 150 mm^3 at start, TST 17 mg/kg, anti-4-1BB 0.2 mg/mouse, day 1, 3, 5, 7, vs control group): 48%
- histological changes in vital organs (H&E staining) ([4]; liver, spleen, kidney): no significant histological changes
- A/G ratio ([4]; serum, day 9, n = 4): 1.99 ± 0.13
- ALP ([4]; serum, day 9, n = 4): 91.50 ± 15.04 U/L
- ALT ([4]; serum, day 9, n = 4): 31.25 ± 4.21 U/L
- AST ([4]; serum, day 9, n = 4): 82.75 ± 8.58 U/L
- Alb ([4]; serum, day 9, n = 4): 3.28 ± 0.08 g/dL
- BUN ([4]; serum, day 9, n = 4): 19.70 ± 1.11 mg/dL
- Crea ([4]; serum, day 9, n = 4): 0.00 ± 0.00 mg/dL
- Glo ([4]; serum, day 9, n = 4): 1.65 ± 0.09 g/dL
- Glu ([4]; serum, day 9, n = 4): 321.00 ± 58.73 mg/dL
- T-Bill ([4]; serum, day 9, n = 4): 0.10 ± 0.00 mg/dL
- T-chol ([4]; serum, day 9, n = 4): 107.50 ± 3.20 mg/dL
- TG ([4]; serum, day 9, n = 4): 118.00 ± 14.88 mg/dL
- TP ([4]; serum, day 9, n = 4): 4.93 ± 0.08 g/dL
- levels of blood biomarkers ([4]; vs DMSO control group): not significantly changed
- apoptotic cell death in normal tissues (TUNEL assay) ([4]; vs DMSO control tissues): no effect on apoptotic cell death in normal tissues
- elevated level of PD-L1 by pFLAG-FOXM1 overexpression decreased to ([5]; H1299): 41.9%
- PD-L1 expression restoration on the cell membrane by FOXM1 overexpression, by ([5]; H1299): 38.7%
- reduction in the PD-L1 levels (cell membrane) ([5]; H1299): 87.23%
- elevated level of PD-L1 by pFLAG-FOXM1 overexpression decreased to ([5]; PC9): 68.0%
- PD-L1 expression restoration on the cell membrane by FOXM1 overexpression, by ([5]; PC9): 46%
- reduction in the PD-L1 levels (cell membrane) ([5]; PC9): 85.82%
